Series [1] concerns primary cardiac cells from neonatal mice. Description: Cytotoxicity test, CCK-8 assay. In kind it is cell-based. Particulars: 24 hours. An excerpt:
The toxicity of the novel compound, brominated 9-O-propyl berberine thiazole formate, on the primary cardiac cells from neonatal mice was detected using CCK-8 assay. The CCK-8 agent contains WST-8, which has the chemical name: 2-(2-methoxy-4-nitrophenyl)-3-(4-nitrophenyl)-5-(2,4-disulfophenyl)-2H-tetrazolium sodium salt. It can be reduced to yellow formazan with high water solubility by the dehydrogenase existing in the mitochondrion in a cell in the presence of electron carrier 1-methoxy-5-methylphenazinium methyl sulfate (1-Methoxy PMS). The amount of formazan generated is proportional to the number of live cells. The absorbance is detected at a wavelength of 450 nm by an enzyme-linked immunosorbent assay, which represents the number of live cells, in which a larger value indicates a higher cell activity. […]
After digestion, the primary cardiac cells from neonatal mice were re-suspended into a 96-well plate at a appropriate concentration with volume of 100 μl for each well. […] After incubation at 37° C. for 1-4 hours, the mixture was placed in a micro-plate reader and shaken for 10 s. The absorbance at 450 nm (OD450) was recorded.
The relative inhibition rate of the compound at various concentrations on the primary cardiac cells from neonatal mice was calculated based on the equation: cell inhibition rate (%)=(1−OD450 of the sample group/OD450 of the control group)*100. […]
(In general: Tetrazolium dyes change colour on reduction, which living cells bring about.)

Series [2] deals with myocardial infarcted mice. Description: Mouse model of myocardial infarction (ligation of the left anterior descending coronary artery), cardiac function by ultrasonography. Particulars: 2 weeks. In kind it is in vivo, C57BL/6 male mice. An excerpt: The mouse model of myocardial infarction was established by ligation of the left anterior descending branch of the coronary artery. The agent was then administrated to the mice to determine the effect of the test sample on myocardial ischemia, and the effect of the test sample on the cardiac functions of the myocardial infarct mice.
Random grouping: the C57BL/6 mice were randomly divided into 5 groups, namely the sham-operation group, the myocardial infarction group, the berberine group (berberine at a dosage of 40 mg/kg·d^−1), the test compound group (brominated 9-O-propyl berberine thiazole formate at a dosage of 40 mg/kg·d^−1) and the positive control group (sacubitril and valsartan sodium at a dosage of 26 mg/kg·d^−1).
The mouse model of myocardial ischemia was established by ligation of the left anterior descending branch of the coronary artery. Healthy male C57BL/6 mice (28±2 g) were anesthetized by intraperitoneal injection of aphrodin (0.2 g/kg). The anesthetic mice were placed in a supine position on the operation desk with the trachea connected to a ventilator by inserting a tracheal tube. An incision of about 0.5˜4.0 cm was made on the skin of the left chest from the upper left to the lower right. Pectoralis minor and serratus anterior were separated. The intercostal muscle was bluntly separated between the fourth and fifth rib, and the heart was slightly squeezed out.
Except for the sham-operation group, coronary artery ligation was performed to all other mice. The mice were randomly divided into 4 groups 24 hours after ligation, including the myocardial infarction group, the berberine group, the brominated 9-O-propyl berberine thiazole formate group and the positive control group. Blank solvent, berberine, brominated 9-O-propyl berberine thiazole formate and positive control sacubitril and valsartan sodium were administrated to the mice by gavage (as shown in Table 1) for consecutive 14 days. […]
The Experiment data were expressed as mean±standard error. […] All experiment results were statistically analyzed by Graphpad Prism 8.0.

The subject of series [3] is primary cardiac cells from neonatal mice after H2O2 treatment. Description: ATP in H2O2-injured primary cardiac cells (luciferase kit). The class given is cell-based. An excerpt:
A kit has been used in this study, based on that ATP is demanded to provide energy during the fluorescence production by the fluorescein catalyzed by the firefly luciferase (also termed as luciferase). When both luciferase and fluorescein are excessive, in a certain concentration range, the fluorescence generated is proportional to the concentration of ATP. That is, the concentration of ATP in the solution can be detected sensitively.
(§1) After disinfecting the neonatal mice (within 3 days after birth) by alcohol, the skin and sternum of the left chest were cut off at one time using a scissor. The heart was then squeezed out, taken and put into a pre-cooled FBS-free DMEM culture medium with a curved forceps. The blood vessels on the surface of heart, the residual blood and the attached lung tissue were removed. The heart tissue was cut into pieces with homogeneous size. The heart pieces were drawn into a 15 ml centrifuge tube, and the supernatant was discarded. The tissue was rinsed by PBS for 2-3 times. The trypsinization solution was added at equivalent volume of the heart tissue. The centrifuge tube was kept shaken to accelerate digestion. After the solution become turbid, the digestion was stopped by transferring the solution to DMEM culture medium. After the digestion of all heart tissues was completed, the digest was filtered by a sieve, and centrifuged at 1500 rpm for 5 min. […]
(§2) After digestion, the primary cardiac cells from neonatal mice were re-suspended into a 6-well plate at a appropriate concentration with volume of 2 mL for each well. […] The activity of SOD and the content of ATP in the cells were determined according to the instruction provided in the SOD and ATP detection kit, respectively. […]
(§3) The experiment data were expressed as mean±standard error. The SOD and ATP content in the cells in each group were analyzed by One-way ANOVA, with P<0.05 indicating a significant difference. All experiment results were statistically analyzed and plotted using Graphpad Prism 8.0.

Series [4] shares this test system. Description: SOD in H2O2-injured primary cardiac cells (WST-1 assay). The class given is cell-based. Here is the method: Dismutation of superoxide anion can be catalyzed by superoxide dismutase (SOD) to give hydrogen peroxide and oxygen. SOD is a kind of important antioxidases in organisms. SOD plays a vital role in the equilibrium between oxidation and anti-oxidation in organisms. SOD is able to scavenge superoxide anion free radicals and protect cells from injuries. In this test, the SOD activity was determined using WST-1 assay.
as §1, §2, §3

Where [5] appears, read: 40 mg/kg gavage once per day, ##P<0.01.
Setting [6] is: vs. the model group, among 1, 2.5 and 5 μM, H2O2 100 μM.

SMILES strings stand for the structures.

On to `COc1ccc2cc3[n+](cc2c1OCCCOC(=O)c1cscn1)CCc1cc2c(cc1-3)OCO2.[Br-]` [9-(3-((thiazole-4-carbonyl)oxy)propoxy)-10-methoxy-5,6-dihydro-[1,3]dioxolo[4,5-g]isoquinolino[3,2-a]isoquinolin-7-ium bromide], for which, in series [1] (Mus musculus, 1000 μM, CCK-8, OD450, read-out: cell inhibition rate), the inhibition (commonly the change of the read-out against control, counted positive when it falls) at 1000 µM came to 41%. Moreover, the “toxicity on primary cardiac cells” value in series [1] (concentration range tested 0.1-1000 μM) is given as “low toxicity”. Also, in series [2] (setting [5]), the “ejection fraction (EF) vs. the myocardial infarction group” value is “significantly increased” and the “fraction shortening (FS) vs. the myocardial infarction group” value is “significantly increased”. In addition, the “effect on EF and FS compared with berberine” value in series [2] (both 40 mg/kg gavage, &P<0.05 vs. the berberine group) is given as “better than that of the berberine”. Also, in series [3] (1, 2.5 and 5 μM, H2O2 100 μM, 24 hours, ##P<0.01, ###P<0.001), the “ATP content vs. the model group” value is recorded as “increased”. The “ATP effect compared with berberine” value in series [3] (same concentration (5 μM), &&P<0.01) was “apparently better than the effect of berberine at the same concentration”. In series [3] (setting [6]), the “highest enhancement of the ATP content” value is on record as 59.1%. For the same compound, the “SOD content vs. the model group” value in series [4] (1, 2.5 and 5 μM, H2O2 100 μM, 24 hours, #P<0.05, ###P<0.001) was “increased”. In addition, in series [4] (same concentration (5 μM), &P<0.05), the “SOD effect compared with berberine” value is “apparently better than the effect of berberine at the same concentration”. In series [4] (setting [6]), the “highest enhancement of the SOD content” value worked out at 43.4%.

For the origin of these results see patent US12195477B2, “Derivative of berberine, and the preparation method and application thereof” (priority 2021, dated 2025).
